*: point of attachment. Biotin = O=C1N[C@H]2[C@H](CS[C@H]2CCCCC(=O)*)N1; PEG4 = NCCOCCOCCOCCOCCC(=O)O
Experiments:
[1] = system: USA-WA1/2020 (SARS-CoV-2) virus; conditions: USA-WA1/2020 virus
[2] = molecular target: T1, SARS-CoV-2 (COVID-19) S Protein RBD (Severe acute respiratory syndrome coronavirus 2, UniProt P0DTC2); type: binding; conditions: Octet
T1 construct: SARS-CoV-2 (COVID-19) S Protein RBD, His Tag—Acro Biosystems SPD-C52H3; purchased Acro Biosystems SPD-C52H3

[3] = molecular target: T2, ACE2 binding to Spike RBD (Severe acute respiratory syndrome coronavirus 2, UniProt P0DTC2); test: biochemical; conditions: for inhibition at 1 µM: @ 1,000 nM
T2 construct: Biotin-(I-24) or His-tagged RBD protein is added; purchased Acro Biosystems SPD-C52H3 (RBD); AC2-H5257 (ACE2-Fc)

| Compound | IC50 [1] [nM] | KD, Binding to Anchored Spike RBD [2] | inhibition at 1 µM [3] [%] | IC50 ([3]; ELISA competition, read-out: IC50, Inhibition of ACE2 Binding to Spike RBD) [nM] |
| --- | --- | --- | --- | --- |
| CC[C@H](C)[C@H](NC(=O)[C@H](CC(C)C)NC(=O)[C@H](CC(=O)O)NC(=O)[C@H](CO)NC(=O)[C@@H](NC(=O)[C@H](CCCNC(=N)N)NC(=O)[C@H](CCSC)NC(=O)[C@H](CO)NC(=O)[C@H](C)NC(=O)[C@H](CCC(=O)O)NC(=O)[C@H](C)NC(=O)[C@H](Cc1c[nH]cn1)NC(=O)CNC(=O)[C@H](CC(C)C)NC(=O)[C@H](CCC(=O)O)NC(=O)[C@H](CC(=O)O)NC(=O)[C@H](CC(C)C)NC(=O)[C@H](CC(C)C)NC(=O)[C@H](CCCNC(=N)N)NC(=O)[C@H](CCSC)NC(=O)[C@@H](NC(=O)[C@H](CCC(=O)O)NC(=O)[C@H](Cc1ccc(O)cc1)NC(=O)[C@@H](NC(=O)[C@H](CCCCN)NC(=O)[C@H](CCC(N)=O)NC(=O)[C@H](CC(C)C)NC(=O)[C@@H](NC(=O)[C@H](Cc1c[nH]c2ccccc12)NC(=O)[C@H](CCC(=O)O)NC(=O)[C@H](CCCCN)NC(=O)[C@H](CC(=O)O)NC(=O)CCOCCOCCOCCOCCNC(=O)CCCC[C@@H]1SC[C@@H]2NC(=O)N[C@@H]21)[C@@H](C)CC)[C@@H](C)CC)[C@@H](C)CC)C(C)C)C(=O)N[C@@H](Cc1ccc(O)cc1)C(=O)N[C@@H](CCC(=O)O)C(=O)N[C@@H](Cc1ccccc1)C(=O)N[C@@H](CCSC)C(=O)N[C@@H](CCCCN)C(=O)N[C@@H](CCCCN)C(=O)NCC(=O)N[C@@H](CC(=O)O)C(=O)N[C@@H](CCC(=O)O)C(=O)N[C@@H](CCCNC(=N)N)C(=O)N[C@@H](CC(C)C)C(=O)N[C@@H](CC(C)C)C(=O)N[C@@H](CCC(=O)O)C(=O)N[C@@H](CCC(=O)O)C(=O)N[C@@H](C)C(=O)N[C@@H](CCC(=O)O)C(=O)N[C@@H](CCCNC(=N)N)C(=O)N[C@@H](CC(C)C)C(=O)N[C@@H](CC(C)C)C(=O)N[C@@H](CCC(=O)O)C(=O)N[C@@H](CCC(=O)O)C(=O)N[C@H](C(=O)N[C@@H](CCC(=O)O)C(=O)N[C@@H](CCCNC(=N)N)C(=O)O)C(C)C [Compound I-6] | < 4.6 |  |  |  |
| CC[C@H](C)[C@H](NC(=O)[C@H](CC(C)C)NC(=O)[C@H](CC(=O)O)NC(=O)[C@H](CO)NC(=O)[C@@H](NC(=O)[C@H](CCCNC(=N)N)NC(=O)[C@H](CCSC)NC(=O)[C@H](CO)NC(=O)[C@H](C)NC(=O)[C@H](CCC(=O)O)NC(=O)[C@H](C)NC(=O)[C@H](Cc1c[nH]cn1)NC(=O)CNC(=O)[C@H](CC(C)C)NC(=O)[C@H](CCC(=O)O)NC(=O)[C@H](CC(=O)O)NC(=O)[C@H](CC(C)C)NC(=O)[C@H](CC(C)C)NC(=O)[C@H](CCCNC(=N)N)NC(=O)[C@H](CCSC)NC(=O)[C@@H](NC(=O)[C@H](CCC(=O)O)NC(=O)[C@H](Cc1ccc(O)cc1)NC(=O)[C@@H](NC(=O)[C@H](CCCCN)NC(=O)[C@H](CCC(N)=O)NC(=O)[C@H](CC(C)C)NC(=O)[C@@H](NC(=O)[C@H](Cc1c[nH]c2ccccc12)NC(=O)[C@H](CCC(=O)O)NC(=O)[C@H](CCCCN)NC(=O)[C@H](CC(=O)O)NC(=O)CCOCCOCCOCCOCCNC(=O)CCCC[C@@H]1SC[C@@H]2NC(=O)N[C@@H]21)[C@@H](C)CC)[C@@H](C)CC)[C@@H](C)CC)C(C)C)C(=O)N[C@@H](Cc1ccc(O)cc1)C(=O)N[C@@H](CCC(=O)O)C(=O)N[C@@H](Cc1ccccc1)C(=O)N[C@@H](CCSC)C(=O)N[C@@H](CCCCN)C(=O)N[C@@H](CCCCN)C(=O)NCC(=O)N[C@@H](CC(=O)O)C(=O)N[C@@H](CCC(=O)O)C(=O)N[C@@H](CCCNC(=N)N)C(=O)N[C@@H](CC(C)C)C(=O)N[C@@H](CC(C)C)C(=O)N[C@@H](CCC(=O)O)C(=O)N[C@@H](CCC(=O)O)C(=O)N[C@@H](C)C(=O)N[C@@H](CCC(=O)O)C(=O)N[C@@H](CCCNC(=N)N)C(=O)N[C@@H](CC(C)C)C(=O)N[C@@H](CC(C)C)C(=O)N[C@@H](CCC(=O)O)C(=O)N[C@@H](CCC(=O)O)C(=O)N[C@H](C(=O)N[C@@H](CCC(=O)O)C(=O)N[C@@H](CCCNC(=N)N)C(N)=O)C(C)C [Compound I-14] | < 4.6 |  |  |  |
| Ac-DKEEILNKIYEIMRLLDELGNAEASMRVSDLILEFMKKGDERLLEEAERLLEEVER-NH2 [Compound I-1] |  | No Binding | 42 | > 1000 |
| {Biotin-PEG4}-DKEEILNKIYEIMRLLDELGNAEASMRVSDLILEFMKKGDERLLEEAERLLEEVER-NH2 [Compound I-2] |  |  | 30 |  |

Source: patent US20240335555A1, “TECHNOLOGIES FOR PREVENTING OR TREATING INFECTIONS” (priority 2021, published 2024)
